Read-outs that look alike come from different tables or passages of the source.
Columns and labels:
ConA [1] = target: T1, ConA (Canavalia ensiformis, UniProt P02866); test: Dissociation of ConA from maltose-ConA interactant by added glucose; type: binding; conditions: visual observation
Method: 100 μl of PBS-T (0.05%) solution containing ConA at 250 μg/ml was placed in an Eppendorf tube. […] Then, a mixture solution was vortexed for at least 10 seconds. Thereafter, the resulting mixture solution was left for approximately 2 hours, and a sugar-protein interactant was precipitated out of the mixture solution by centrifugation. Then, supernatant thereof was removed, and the sugar-protein interactant was washed with PBS-T (0.05%) solution and water several times. After the washing, 100 μl of 200 mM glucose aqueous solution was added to the sugar-protein interactant, and the resulting mixture solution was left for approximately 1 hour.
First, 25 μl of PBS-T (0.05%) solution containing RCA120 at 250 μg/ml was placed in an Eppendorf tube. To the solution was added 25 μl of the colloid solution of lactose-immobilized gold nanoparticles which was prepared in Example 4. Then, a mixture solution was vortexed for at least 10 seconds. Thereafter, the resulting mixture solution was left for approximately 2 hours, and a sugar-protein interactant (lactose-RCA interactant) was precipitated out of the mixture solution by centrifugation. Then, supernatant thereof was removed, and the sugar-protein interactant was washed with PBS-T (0.05%) solution and water several times. […] The results were evaluated by visual observation and UV-Vis measurement. […]

RCA120 = RCA120 (Ricinus communis, UniProt P06750); type: binding, caster bean; set-up: key to Degree of dissociation: ⊚: lectin was completely dissociated; ◯: lectin was almost completely dissociated; Δ: lectin was dissociated with residual sugar-protein interactant (aggregate); X: the lactose-RCA120 interactant kept in aggregated state, and lectin was not dissociated therefrom
ConA [2] = target: T1, ConA; type: binding
Method: A PBS-T (0.05%) solution containing glucose, maltose, GlcNAc, galactose, or lactose as a sugar chain at a concentration of 400 mM was prepared.
First, a PBS-T (0.05%) solution containing ConA or RCA120 at a concentration of 2 μM was prepared as a lectin solution, and the lectin solution was introduced to 96-well titer plate by adding 10 μl in each well. Then, a glucose solution, a maltose solution, or a GlcNAc solution was added to a ConA-added well by 20 μl in each well. A galactose solution or a lactose solution was added to a RCA120-added well by 20 μl in each well. The resulting solutions were stirred at a room temperature for 1 hour. […] The resulting solutions were stirred at a room temperature for 1 hour. After the stirring, absorbance of the stirred solutions at 525 nm was measured.
Values below the “after” column are IC50 obtained in a case where the sugar chain was added to an aggregate of the lectin and the colloid solution. Values below the “before” column are IC50 obtained in a case where the colloid solution was added to the admixture of the lectin and the sugar chain.

SMILES	concentration of added sugar solution at which excellent ConA dissociation was observed (ConA [1])	Degree of dissociation (RCA120)	concentration of added sugar solution at which excellent RCA120 dissociation was observed (RCA120)	IC50 (ConA [2]; read-out: IC50 after)	IC50 (ConA [2]; read-out: IC50 before)
O=C[C@H](O)[C@@H](O)[C@@H](O)[C@H](O)CO [galactose]	≥ 50 mM	Δ and X and ◯	≥ 25 mM	–	–
CC(=O)N[C@H]1C(O)O[C@H](CO)[C@@H](O)[C@@H]1O (some centres unmarked) [GlcNAc, N-acetyl glucosamine]	–	–	–	80.1 mM	22.9 mM

Reference: patent publication US8067393B2 (priority 2005, dated 2011)
